We go through one compound from patent publication US11572540B2, “Method for inducing oligodendrocyte precursor cells from OCT4-induced human somatic cells through direct reprogramming” (Stemlab Inc., priority 2015, dated 2023).

For the test, the system named is Oct4-introduced Sox10::eGFP fibroblasts. Kind of test: FACS analysis of Sox10::eGFP reporter expression after low molecular weight substance treatment. As to conditions: 10 μM forskolin added to ATVP medium. Type of test: cell-based, human. From the text:
The inventors have established conditions capable of inducing neural stem cells from mouse cells only with a low molecular weight substance without gene introduction (KR 10-1357402). Accordingly, to establish new conditions capable of inducing human somatic cells into OPCs on the basis of the low molecular weight substance that had been established in the previous study, a low molecular weight substance was selected using a Sox10 reporter system (Sox10::eGFP), which is a gene known to be important in development of oligodendrocytes (FIG. 1). When Oct4 gene-introduced cells were cultured in a reprogramming medium (RM: DMEM with high Glucose+5% knock out serum replacement (KSR)+1% penicillin/streptomycin+1% non-essential amino acids+20 ng/ml basic FGF (bFGF)+20 ng/ml human recombinant platelet derived growth factor (PDGF)+50 μg/ml ascorbic acid), one week after induction, it was confirmed that a cell length was shorter and a cell size was smaller through mesenchymal to epithelial transition (MET), thereby forming an epithelial-like colony. […]
For orientation: In flow cytometry, cells or beads pass a laser one at a time.

On to `C=C[C@@]1(C)CC(=O)[C@]2(O)[C@@]3(C)[C@@H](O)CCC(C)(C)[C@@H]3[C@H](O)[C@H](OC(C)=O)[C@@]2(C)O1` [forskolin], for which the “Sox10::eGFP expression (GFP+ distribution, FACS)” value is on record as 3.31%.
